# Measurements taken from patent publication US9422248B2 (University of Iowa Research Foundation, priority 2012, dated 2016).
# “And” between values parts separate entries of the source, which are not always exact repeats. Identical values can stand only once. Like-named read-outs stand apart in the source and are kept apart here.
# Key:
# [1] = test system: maximal electroshock (MES) model; assay: maximal electroshock (MES) model; format: in vivo, mouse; settings: for responders at 30 mg/kg / responders at 100 mg/kg / responders at 300 mg/kg: Mus musculus, MES; for responders at 30 mg/kg: 30 mg/kg ip; for responders at 30 mg/kg / responders at 300 mg/kg: read-out: number of animals protected/number of animals tested; for responders at 100 mg/kg: 100 mg/kg ip, read-out: number of animals protected/number of animals tested (converted); for responders at 300 mg/kg: 300 mg/kg ip
# From the text: (§1) All compounds (FIG. 1) were screened in three whole mouse models: the maximal electroshock model (MES), the scMET test (pentylenetetrazole, Metrazol), and the 6 Hz psychomotor seizure model of partial epilepsy (32 mA). Adult male CF No 1 albino mice (26-30 g) were used for the 6 Hz test and 18-25 g mice were used in the MES and scMet tests. The animals are housed, fed, and handled in a manner consistent with the recommendations in the National Council Publication, “Guide for the Care and Use of Laboratory Animals”. The animal studies were performed by the NINDS Anticonvulsant Screening Program under IACUC number 09-12014. All compounds were administered ip in polyethylene glycol, 30%.
# (§2) The MES model, which generates generalized tonic-clonic seizures, involved pretreating mice with experimental compound, and administering 60 Hz of alternating current (50 mA) for 2 s via corneal electrodes. Prior to current administration, the animal's corneas were treated topically with 1% tetracaine. Animals are considered protected if the hindlimb tonic extensor component is absent. The scMET test was done by pretreating mice with experimental compound and administering 85 mg/kg Metrazol into the loose folds of the skin in the midline of the neck. Eighty-five mg/kg Metrazol is the dose that causes seizures in 97% (CD97) of control animals.
# [2] = test system: scMET model (pentylenetetrazole, Metrazol); assay: scMET test (subcutaneous Metrazol); format: in vivo, mouse; settings: Mus musculus, scMET, read-out: number of animals protected/number of animals tested; for responders at 30 mg/kg: 30 mg/kg ip; for responders at 100 mg/kg: 100 mg/kg ip; for responders at 300 mg/kg: 300 mg/kg ip
# From the text: as §1, §2
# 6 Hz (32 mA) model = assay: 6 Hz (32 mA) psychomotor seizure model of partial epilepsy; format: in vivo, mouse; settings: for Protective effects, number of animals protected/number of animals tested: 6 Hz (32 mA), 100 mg/kg ip
# From the text: as §1
# The 6 Hz test (also known as the minimal clonic seizure, or psychomotor test) involved delivering a corneal stimulus of 32 mA for 3 s. This current elicits psychomotor seizures in 97% of untreated animals. Seizures consist of a minimal clonic phase followed by stereotyped automatistic behaviors. Animals not showing such behaviors were considered protected. Toxicity was determined by the rotorod test. For this test, the animal is placed on a rotorod at 6 rpm following dosing. The animal is considered toxic if it falls off the rotorod three times in a 1 min period. The ED50, TD50 and confidence intervals were determined by probit analysis.
# rotorod test = assay: Toxicity by the rotorod test; format: in vivo
# From the text: All compounds (FIG. 1) were screened in three whole mouse models: the maximal electroshock model (MES), the scMET test (pentylenetetrazole, Metrazol), and the 6 Hz psychomotor seizure model of partial epilepsy (32 mA). Adult male CF No 1 albino mice (26-30 g) were used for the 6 Hz test and 18-25 g mice were used in the MES and scMet tests. The animals are housed, fed, and handled in a manner consistent with the recommendations in the National Council Publication, “Guide for the Care and Use of Laboratory Animals”. […] All compounds were administered ip in polyethylene glycol, 30%.
# The 6 Hz test (also known as the minimal clonic seizure, or psychomotor test) involved delivering a corneal stimulus of 32 mA for 3 s. […] Seizures consist of a minimal clonic phase followed by stereotyped automatistic behaviors. Animals not showing such behaviors were considered protected. Toxicity was determined by the rotorod test. For this test, the animal is placed on a rotorod at 6 rpm following dosing. The animal is considered toxic if it falls off the rotorod three times in a 1 min period. The ED50, TD50 and confidence intervals were determined by probit analysis.
Compound,responders at 30 mg/kg ([1]; 0.5 h) [%],responders at 100 mg/kg ([1]; 0.5 h) [%],responders at 100 mg/kg ([1]; 4 h) [%],responders at 300 mg/kg ([1]; 0.5 h) [%],responders at 300 mg/kg ([1]; 4 h) [%],responders at 30 mg/kg ([2]; 0.5 h) [%],responders at 30 mg/kg ([2]; 4 h) [%],responders at 100 mg/kg ([2]; 0.5 h) [%],responders at 100 mg/kg ([2]; 4 h) [%],responders at 300 mg/kg ([2]; 0.5 h) [%],responders at 300 mg/kg ([2]; 4 h) [%],"Protective effects, number of animals protected/number of animals tested (6 Hz (32 mA) model; 2 h)","Protective effects, number of animals protected/number of animals tested (6 Hz (32 mA) model; 4 h)","Toxicity, animals/number of animals tested (rotorod test; dose 100 mg/kg ip, 0.25 h)","Toxicity, animals/number of animals tested (rotorod test; dose 100 mg/kg ip, 0.5 h)","Toxicity, animals/number of animals tested (rotorod test; dose 100 mg/kg ip, 1 h)","Toxicity, animals/number of animals tested (rotorod test; dose 100 mg/kg ip, 2 h)","Toxicity, animals/number of animals tested (rotorod test; dose 100 mg/kg ip, 4 h)",also measured
"Cc1cc(C(O)C(F)(F)F)ccc1O (stereo not shown) [RM170, 2-Methyl-4-(2,2,2-trifluoro-1-hydroxy-ethyl)-phenol]",0,0,0,100,100,0,0,0,0,0,0,1/4,1/4,0/3,0/8,0/3,0/3,0/4,"MES protection ([1]; 300 mg/kg dose): some protection; MES protection, time points after dosing ([1]; 300 mg/kg dose): protection at both 0.5 and 4 h; responders at 100 mg/kg ([1]; 0.25 h): 0%; responders at 100 mg/kg ([1]; 1 h): 0%; responders at 100 mg/kg ([1]; 2 h): 0%; responders at 100 mg/kg ([1]; 6 h): 0%; Protective effects, number of animals protected/number of animals tested (6 Hz (32 mA) model; 0.25 h): 0/4; Protective effects, number of animals protected/number of animals tested (6 Hz (32 mA) model; 0.5 h): 0/4; Protective effects, number of animals protected/number of animals tested (6 Hz (32 mA) model; 1 h): 2/4; animals in which seizures were inhibited (6 Hz (32 mA) model; 6 Hz, 100 mg/kg, any time point from 0.25 to 4 h): no more than 2 of 4; Toxicity, animals/number of animals tested (rotorod test; dose 100 mg/kg ip, 6 h): 0/3; Toxicity, animals/number of animals tested (rotorod test; dose 30 ip, 0.5 h): 0/4; Toxicity, animals/number of animals tested (rotorod test; dose 30 ip, 4 h): 0/2; Toxicity, animals/number of animals tested (rotorod test; dose 300 ip, 0.5 h): 0/4; Toxicity, animals/number of animals tested (rotorod test; dose 300 ip, 4 h): 0/2; evidence of toxicity (rotorod test; doses up to 300 mg/kg): Neither RM170 nor RM166 showed any evidence of toxicity"
"CCCc1cc(C(O)C(F)(F)F)cc(Br)c1O (stereo not shown) [RM1204, 2-Bromo-6-n-propyl-4-(2,2,2-trifluoro-1-hydroxy-ethyl)-phenol]",0,0,0,0,0,0,0,0,0,0,0,0/4,0/4,1/4,0/4,1/4,0/4,0/4,"responders at 30 mg/kg ([1]; 4 h): 0%; MES protection ([1]; any dose (30-300 mg/kg ip)): no MES protection; Protective effects, number of animals protected/number of animals tested (6 Hz (32 mA) model; 0.25 h, 100 mg/kg): 4/4 and complete protection; Protective effects, number of animals protected/number of animals tested (6 Hz (32 mA) model; 0.5 h, 100 mg/kg): 4/4 and complete protection; Protective effects, number of animals protected/number of animals tested (6 Hz (32 mA) model; 1 h, 100 mg/kg): partial protection and 2/4; toxicity (rotorod test; mouse, in vivo): only low toxicity"
